Columns and labels:
Type in all cases: in vivo
Eimeria acervulina = assay: Cage experiment on coccidiosis/chicks; conditions: chicks; for Efficacy against Eimeria acervulina: 1st figure of cell
Procedure: (§1) 8- to 12- day-old male chicks (e.g. LSL Brinkschulte/Senden) which have been reared coccidia-free receive the compounds according to the invention (test substances) in the concentration indicated in ppm with the feed from 3 days before (day −3) infection (=a.i.) until 8 (9) days after infection (=p.i.). 3 animals are kept in each cage. One or more groups of this type are employed per dose. Infection is carried out by means of a stomach tube directly into the crop with approximately 100,000 sporulated oocysts of Eimeria acervulina and with approximately 30,000 oocysts each of E. maxima and 40,000 sporulated oocysts of E. tenella. These are highly virulent strains. The exact infection dose is adjusted so that, if possible, one of three experimentally infected untreated chicks dies due to the infection. For assessment of the efficacy, the following criteria are taken into account: weight increase from the start of the experiment to the end of the experiment, death rate due to infection, macroscopic assessment of the faeces with respect to diarrhoea and excretion of blood on days 5 and 7 p.i. (assessment 0 to 6), macroscopic assessment of the intestinal mucosa, in particular of the appendices (assessment 0 to 6) and the oocyst excretion as well as the proportion (in %) of the oocysts sporulating in the course of 24 hours. The number of oocysts in the faeces was determined with the aid of a McMaster counting chamber (see Engelbrecht and coworkers “Parasitologische Arbeitsmethoden in Medizin and Veterinärmedizin” [Parasitological Working Methods in Medicine and Veterinary Medicine], Akademie-Verlag, Berlin (1965)). The individual findings are related to the untreated non-infected control groups and a total score is calculated (cf. A. Haberkorn (1986), pp. 263 to 270 in Research in Avian Coccidiosis ed L. R. McDougald, L. P. Joyner, P. L. Long, Proceedings of the Georgia Coccidiosis Conference, Nov. 18-20, 1985, Athens/Ga. USA).
(§2) In the column “ppm”, the concentration of the active compound employed in the feed is indicated in ppm.
(§3) In the column “mortality”, the percentage of the dead animals is indicated under % and the number of dead animals/animals employed in the experiment is indicated under n.
(§4) In the column “weight % of not inf. control”, the ratio of the weight of the treated animals to the weight of the non-infected control group is indicated.
(§5) In the columns “dropping scores”, “lesion score” and “oocyst control”, individual details of the action are given.
(§6) In the column “% efficacy”, the total score is assessed; 0% means no action, 100% means full action.

Eimeria maxima = assay: Cage experiment on coccidiosis/chicks; conditions: chicks; for Efficacy against Eimeria maxima: 2nd figure of cell
Procedure: as §1, §2, §3, §4, §5, §6

Eimeria tenella = assay: Cage experiment on coccidiosis/chicks; conditions: chicks; for Efficacy against Eimeria tenella: 3rd figure of cell
Procedure: as §1, §2, §3, §4, §5, §6

[1] = tested on: Eimeria acervulina, Eimeria maxima and Eimeria tenella; assay: Cage experiment on coccidiosis/chicks, mixed experimental infection; conditions: chicks; for dropping scores / lesion score: assessment 0 to 6; for mortality n: dead animals/animals employed; for % efficay tot.: total score
Procedure: as §1, §2, §3, §4, §5, §6

## CO[C@@H]1[C@@H](OC)[C@H](C)[C@@](O)(CC(=O)O)O[C@H]1[C@H](C)[C@H]1O[C@@]2(CC[C@@](C)([C@H]3CC[C@@](C)([C@@H]4O[C@@H]([C@H]5O[C@](C)(O)[C@H](C)C[C@@H]5C)C[C@@H]4O[C@@H]4C[C@H](OC)[C@@H](OC)[C@H](C)O4)O3)O2)C[C@H](O)[C@H]1C [MAD, maduramicin, reference compound]
Eimeria acervulina; MAD 1 ppm in feed
  oocyst in % of inf. control ac.: >100%
Eimeria acervulina; MAD 2 ppm in feed
  oocyst in % of inf. control ac.: >100%
Eimeria acervulina; MAD 3 ppm in feed
  oocyst in % of inf. control ac.: >100%
Eimeria maxima; MAD 1 ppm in feed
  oocyst in % of inf. control max.: >100%
Eimeria maxima; MAD 2 ppm in feed
  oocyst in % of inf. control max.: >100%
Eimeria maxima; MAD 3 ppm in feed
  oocyst in % of inf. control max.: >100%
Eimeria tenella; MAD 1 ppm in feed
  oocyst in % of inf. control ten.: 85%
Eimeria tenella; MAD 2 ppm in feed
  oocyst in % of inf. control ten.: >100%
Eimeria tenella; MAD 3 ppm in feed
  oocyst in % of inf. control ten.: 75%
[1]; MAD 1 ppm in feed
  mortality %: 67%
  oocyst in % of inf. control tot.: >100%
  weight % of not inf. control: 17%
  dropping scores: 6
  lesion score: 6
  mortality n: 2/3
  % efficay tot.: 0%
[1]; MAD 2 ppm in feed
  mortality %: 0%
  oocyst in % of inf. control tot.: >100%
  weight % of not inf. control: 82%
  dropping scores: 2
  lesion score: 6
  mortality n: 0/3
  % efficay tot.: 29%
[1]; MAD 3 ppm in feed
  mortality %: 0%
  oocyst in % of inf. control tot.: >100%
  weight % of not inf. control: 98%
  dropping scores: 0
  lesion score: 1
  mortality n: 0/3
  % efficay tot.: 44%

## CC(C)COCn1c(C(F)(F)F)nc2cc(OC(F)(F)F)c(C(F)(F)F)cc21 [Ex. 2]
Eimeria acervulina; 1 ppm in feed
  Efficacy against Eimeria acervulina: 1
Eimeria acervulina; 2.5 ppm in feed
  Efficacy against Eimeria acervulina: 1
Eimeria acervulina; 5 ppm in feed
  Efficacy against Eimeria acervulina: 0
Eimeria acervulina; 7.5 ppm in feed
  Efficacy against Eimeria acervulina: 1
Eimeria acervulina; 10 ppm in feed
  Efficacy against Eimeria acervulina: 1
Eimeria acervulina; 25 ppm in feed
  Efficacy against Eimeria acervulina: 2
Eimeria acervulina; 50 ppm in feed
  Efficacy against Eimeria acervulina: 2
Eimeria acervulina; Ex. 2 2.5 ppm in feed
  oocyst in % of inf. control ac.: >100%
Eimeria acervulina; Ex. 2 5 ppm in feed
  oocyst in % of inf. control ac.: 54%
Eimeria acervulina; Ex. 2 7.5 ppm in feed
  oocyst in % of inf. control ac.: 56%
Eimeria acervulina; Ex. 2 10 ppm in feed
  oocyst in % of inf. control ac.: 93%
Eimeria maxima; 1 ppm in feed
  Efficacy against Eimeria maxima: 1
Eimeria maxima; 2.5 ppm in feed
  Efficacy against Eimeria maxima: 1
Eimeria maxima; 5 ppm in feed
  Efficacy against Eimeria maxima: 1
Eimeria maxima; 7.5 ppm in feed
  Efficacy against Eimeria maxima: 1
Eimeria maxima; 10 ppm in feed
  Efficacy against Eimeria maxima: 2
Eimeria maxima; 25 ppm in feed
  Efficacy against Eimeria maxima: 2
Eimeria maxima; 50 ppm in feed
  Efficacy against Eimeria maxima: 2
Eimeria maxima; Ex. 2 2.5 ppm in feed
  oocyst in % of inf. control max.: >100%
Eimeria maxima; Ex. 2 5 ppm in feed
  oocyst in % of inf. control max.: 0%
Eimeria maxima; Ex. 2 7.5 ppm in feed
  oocyst in % of inf. control max.: 0%
Eimeria maxima; Ex. 2 10 ppm in feed
  oocyst in % of inf. control max.: >100%
Eimeria tenella; 1 ppm in feed
  Efficacy against Eimeria tenella: 1
Eimeria tenella; 2.5 ppm in feed
  Efficacy against Eimeria tenella: 1
Eimeria tenella; 5 ppm in feed
  Efficacy against Eimeria tenella: 0
Eimeria tenella; 7.5 ppm in feed
  Efficacy against Eimeria tenella: 1
Eimeria tenella; 10 ppm in feed
  Efficacy against Eimeria tenella: 1
Eimeria tenella; 25 ppm in feed
  Efficacy against Eimeria tenella: 2
Eimeria tenella; 50 ppm in feed
  Efficacy against Eimeria tenella: 2
Eimeria tenella; Ex. 2 2.5 ppm in feed
  oocyst in % of inf. control ten.: >100%
Eimeria tenella; Ex. 2 5 ppm in feed
  oocyst in % of inf. control ten.: 98%
Eimeria tenella; Ex. 2 7.5 ppm in feed
  oocyst in % of inf. control ten.: 23%
Eimeria tenella; Ex. 2 10 ppm in feed
  oocyst in % of inf. control ten.: 65%
[1]; Ex. 2 2.5 ppm in feed
  mortality %: 33%
  oocyst in % of inf. control tot.: >100%
  weight % of not inf. control: 33%
  dropping scores: 6
  lesion score: 6
  mortality n: 1/3
  % efficay tot.: 2%
[1]; Ex. 2 5 ppm in feed
  mortality %: 33%
  oocyst in % of inf. control tot.: 73%
  weight % of not inf. control: 65%
  dropping scores: 6
  lesion score: 6
  mortality n: 1/3
  % efficay tot.: 37%
[1]; Ex. 2 7.5 ppm in feed
  mortality %: 33%
  oocyst in % of inf. control tot.: 41%
  weight % of not inf. control: 74%
  dropping scores: 6
  lesion score: 6
  mortality n: 1/3
  % efficay tot.: 36%
[1]; Ex. 2 10 ppm in feed
  mortality %: 0%
  oocyst in % of inf. control tot.: 83%
  weight % of not inf. control: 69%
  dropping scores: 6
  lesion score: 6
  mortality n: 0/3
  % efficay tot.: 17%

## CCOCn1c(C(F)(F)F)nc2c(C(F)(F)F)cc(OC(F)(F)F)cc21 [Ex. 3]
Eimeria acervulina; 1 ppm in feed
  Efficacy against Eimeria acervulina: 0
Eimeria acervulina; 2.5 ppm in feed
  Efficacy against Eimeria acervulina: 2
Eimeria acervulina; 5 ppm in feed
  Efficacy against Eimeria acervulina: 2
Eimeria acervulina; 7.5 ppm in feed
  Efficacy against Eimeria acervulina: 2
Eimeria acervulina; 10 ppm in feed
  Efficacy against Eimeria acervulina: 1
Eimeria maxima; 1 ppm in feed
  Efficacy against Eimeria maxima: 0
Eimeria maxima; 2.5 ppm in feed
  Efficacy against Eimeria maxima: 2
Eimeria maxima; 5 ppm in feed
  Efficacy against Eimeria maxima: 2
Eimeria maxima; 7.5 ppm in feed
  Efficacy against Eimeria maxima: 2
Eimeria maxima; 10 ppm in feed
  Efficacy against Eimeria maxima: 1
Eimeria tenella; 1 ppm in feed
  Efficacy against Eimeria tenella: 0
Eimeria tenella; 2.5 ppm in feed
  Efficacy against Eimeria tenella: 1
Eimeria tenella; 5 ppm in feed
  Efficacy against Eimeria tenella: 2
Eimeria tenella; 7.5 ppm in feed
  Efficacy against Eimeria tenella: 2
Eimeria tenella; 10 ppm in feed
  Efficacy against Eimeria tenella: 1

## CCOCn1c(C(F)(F)F)nc2cc(OC(F)(F)F)c(C(F)(F)F)cc21 [Ex. 1]
Eimeria acervulina; 1 ppm in feed
  Efficacy against Eimeria acervulina: 0
Eimeria acervulina; 2.5 ppm in feed
  Efficacy against Eimeria acervulina: 2
Eimeria acervulina; 5 ppm in feed
  Efficacy against Eimeria acervulina: 2
Eimeria acervulina; 7.5 ppm in feed
  Efficacy against Eimeria acervulina: 2
Eimeria acervulina; 10 ppm in feed
  Efficacy against Eimeria acervulina: 2
Eimeria maxima; 1 ppm in feed
  Efficacy against Eimeria maxima: 1
Eimeria maxima; 2.5 ppm in feed
  Efficacy against Eimeria maxima: 2
Eimeria maxima; 5 ppm in feed
  Efficacy against Eimeria maxima: 2
Eimeria maxima; 7.5 ppm in feed
  Efficacy against Eimeria maxima: 2
Eimeria maxima; 10 ppm in feed
  Efficacy against Eimeria maxima: 2
Eimeria tenella; 1 ppm in feed
  Efficacy against Eimeria tenella: 1
Eimeria tenella; 2.5 ppm in feed
  Efficacy against Eimeria tenella: 2
Eimeria tenella; 5 ppm in feed
  Efficacy against Eimeria tenella: 2
Eimeria tenella; 7.5 ppm in feed
  Efficacy against Eimeria tenella: 2
Eimeria tenella; 10 ppm in feed
  Efficacy against Eimeria tenella: 1

— US20040044055A1, “N-alkoxlyalkyl-substituted benzimidazoles and the use thereof as an agent against parastic protozoans” (priority 2000, published 2004)
